What was measured:
[1] = biological target: human orexin-2 receptor (Homo sapiens (Human), UniProt O43614); experiment: FLIPR Ca2+ Flux Assay, orexin-2 receptor; format: cell-based; details: CHO cells, agonist 70 pM Ala-6,12 human orexin-A; read-out: hOX2R FLIPR IC50
Procedure: The utility of the compounds in accordance with the present invention as orexin receptor OX1R and/or OX2R antagonists may be readily determined without undue experimentation by methodology well known in the art, including the “FLIPR Ca^2+ Flux Assay” (Okumura et al., Biochem. Biophys. Res. Comm. 280:976-981, 2001). In a typical experiment the OX1 and OX2 receptor antagonistic activity of the compounds of the present invention was determined in accordance with the following experimental method. For intracellular calcium measurements, Chinese hamster ovary (CHO) cells expressing the rat orexin-1 receptor or the human orexin-2 receptor, are grown in Iscove's modified DMEM containing 2 mM L-glutamine, […], 1% hypoxanthine-thymidine supplement, 100 U/ml penicillin, 100 μg/ml streptomycin and 10% heat-inactivated fetal calf serum (FCS). The cells are seeded at 20,000 cells/well into Becton-Dickinson black 384-well clear bottom sterile plates coated with poly-D-lysine. All reagents were from GIBCO-Invitrogen Corp. The seeded plates are incubated overnight at 37° C. and 5% CO2. Ala-6,12 human orexin-A as the agonist is prepared as a 1 mM stock solution in 1% bovine serum albumin (BSA) and diluted in assay buffer (HBSS containing 20 mM HEPES, 0.1% BSA and 2.5 mM probenecid, pH7.4) for use in the assay at a final concentration of 70 pM. Test compounds are prepared as 10 mM stock solution in DMSO, then diluted in 384-well plates, first in DMSO, then assay buffer. On the day of the assay, cells are washed 3 times with 100 μl assay buffer and then incubated for 60 min (37° C., 5% CO2) in 60 μl assay buffer containing 1 μM Fluo-4AM ester, 0.02% pluronic acid, and 1% BSA. The dye loading solution is then aspirated and cells are washed 3 times with 100 μl assay buffer. 30 μl of that same buffer is left in each well. Within the Fluorescent Imaging Plate Reader (FLIPR, Molecular Devices), test compounds are added to the plate in a volume of 25 μl, incubated for 5 min and finally 25 μl of agonist is added. Fluorescence is measured for each well at 1 second intervals for 5 minutes and the height of each fluorescence peak is compared to the height of the fluorescence peak induced by 70 pM Ala-6,12 orexin-A with buffer in place of antagonist. For each antagonist, IC50 value (the concentration of compound needed to inhibit 50% of the agonist response) is determined. Alternatively, compound potency can be assessed by a radioligand binding assay (described in Bergman et. al. Bioorg. Med. Chem. Lett. 2008, 18, 1425-1430) in which the inhibition constant (Ki) is determined in membranes prepared from CHO cells expressing either the OX1 or OX2 receptor. The intrinsic orexin receptor antagonist activity of a compound which may be used in the present invention may be determined by these assays.

[2] = biological target: hOX1R (Homo sapiens, UniProt O43613); experiment: FLIPR Ca2+ Flux Assay, orexin-1 receptor; format: cell-based; details: CHO cells, agonist 70 pM Ala-6,12 human orexin-A

human orexin-2 receptor, sequence (O43614 whole entry): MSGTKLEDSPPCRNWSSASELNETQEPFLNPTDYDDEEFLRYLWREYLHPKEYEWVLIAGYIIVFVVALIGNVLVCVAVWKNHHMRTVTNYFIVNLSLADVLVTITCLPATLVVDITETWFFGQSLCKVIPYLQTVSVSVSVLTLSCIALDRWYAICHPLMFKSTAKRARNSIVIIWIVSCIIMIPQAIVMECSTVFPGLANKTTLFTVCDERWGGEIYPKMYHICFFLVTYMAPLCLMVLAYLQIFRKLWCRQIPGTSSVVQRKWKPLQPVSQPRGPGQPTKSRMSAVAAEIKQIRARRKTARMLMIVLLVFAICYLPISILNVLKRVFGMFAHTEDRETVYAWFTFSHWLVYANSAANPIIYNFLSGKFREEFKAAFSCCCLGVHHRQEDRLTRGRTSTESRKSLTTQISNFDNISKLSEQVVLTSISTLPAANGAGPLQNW

Compound	IC50 [1] [nM]	IC50 [2] [nM]
COC(=O)c1c(C)ccnc1S[C@@H]1CC[C@@H](C)N(C(=O)c2ccccc2-n2nccn2)C1 [Example 1, Methyl 4-methyl-2-{[(3R,6R)-6-methyl-1-{[2-(2H-1,2,3-triazol-2-yl)phenyl]carbonyl}-piperidin-3-yl]sulfanyl}pyridine-3-carboxylate]	22.2	27.8
Cc1cc(C#N)cc(S[C@@H]2CC[C@@H](C)N(C(=O)c3ccccc3-n3nccn3)C2)n1 [Example 2, 2-methyl-6-{[(3R,6R)-6-methyl-1-{[2-(2H-1,2,3-triazol-2-yl)phenyl]carbonyl}piperidin-3-yl]sulfanyl}pyridine-4-carbonitrile]	82.9	1540
COC(=O)c1cccnc1S[C@@H]1CC[C@@H](C)N(C(=O)c2ccccc2-n2nccn2)C1 [Example 3, methyl 2-{[(3R,6R)-6-methyl-1-{[2-(2H-1,2,3-triazol-2-yl)phenyl]carbonyl}piperidin-3-yl]sulfanyl}pyridine-3-carboxylate]	23.9	48.1
COC(=O)c1c(I)ccnc1S[C@@H]1CC[C@@H](C)N(C(=O)c2ccccc2-n2nccn2)C1 [Example 4, methyl 4-iodo-2-{[(3R,6R)-6-methyl-1-{[2-(2H-1,2,3-triazol-2-yl)phenyl]carbonyl}piperidin-3-yl]sulfanyl}pyridine-3-carboxylate]	23.6	54.4
C[C@@H]1CC[C@@H](Sc2ccccn2)CN1C(=O)c1ccccc1-n1nccn1 [Example 7, 2-{[(3R,6R)-6-methyl-1-{[2-(2H-1,2,3-triazol-2-yl)phenyl]carbonyl}piperidin-3-yl]sulfanyl}pyridine]	179	1630
C[C@@H]1CC[C@@H](Sc2ccc(C(F)(F)F)cn2)CN1C(=O)c1ccccc1-n1nccn1 [Example 8, 2-{[(3R,6R)-6-methyl-1-{[2-(2H-1,2,3-triazol-2-yl)phenyl]carbonyl}piperidin-3-yl]sulfanyl}-5-(trifluoromethyl)pyridine]	322	596
C[C@@H]1CC[C@@H](Sc2cc(C#N)ccn2)CN1C(=O)c1ccccc1-n1nccn1 [Example 9, 2-{[(3R,6R)-6-methyl-1-{[2-(2H-1,2,3-triazol-2-yl)phenyl]carbonyl}piperidin-3-yl]sulfanyl}pyridine-4-carbonitrile]	13.5	1410
Cc1ccnc(S[C@@H]2CC[C@@H](C)N(C(=O)c3ccccc3-n3nccn3)C2)c1C#N [Example 10, 4-methyl-2-{[(3R,6R)-6-methyl-1-{[2-(2H-1,2,3-triazol-2-yl)phenyl]carbonyl}piperidin-3-yl]sulfanyl}pyridine-3-carbonitrile]	24.2	634
Cc1ccnc(S[C@@H]2CC[C@@H](C)N(C(=O)c3ccccc3-n3nccn3)C2)c1 [Example 11, 4-methyl-2-{[(3R,6R)-6-methyl-1-{[2-(2H-1,2,3-triazol-2-yl)phenyl]carbonyl}piperidin-3-yl]sulfanyl}pyridine]	20	440
COC(=O)c1ccnc(S[C@@H]2CC[C@@H](C)N(C(=O)c3ccccc3-n3nccn3)C2)c1 [Example 13, methyl 2-{[(3R,6R)-6-methyl-1-{[2-(2H-1,2,3-triazol-2-yl)phenyl]carbonyl}piperidin-3-yl]sulfanyl}pyridine-4-carboxylate]	297	6310
COc1ccc(C(=O)N2C[C@H](Sc3cc(C#N)ccn3)CC[C@H]2C)c(-n2nccn2)n1 [Example 14, 2-{[(3R,6R)-1-{[6-Methoxy-2-(2H-1,2,3-triazol-2-yl)pyridin-3-yl]carbonyl}-6-methylpiperidin-3-yl]sulfanyl}pyridine-4-carbonitrile]	149	10000
C[C@@H]1CC[C@@H](Sc2cc(C#N)ccn2)CN1C(=O)c1c(F)cccc1-n1nccn1 [Example 16, 2-{[(3R,6R)-1-{[2-fluoro-6-(2H-1,2,3-triazol-2-yl)phenyl]carbonyl}-6-methylpiperidin-3-yl]sulfanyl}pyridine-4-carbonitrile]	51.4	2350

— patent US9617246B2, “Thioether-piperidinyl orexin receptor antagonists” (MERCK SHARP & DOHME CORP., priority 2013, dated 2017)
